Measured values reported in patent publication US11478493B2, “Fabrication and application of a hetero-targeted nano-cocktail with traceless linkers” (priority 2019, dated 2022).

Tested on: SKOV-3 cells
Test: Cytotoxicity assay (MTT) against SKOV-3 cells
Type: cell-based, Human
Conditions: SKOV-3, 72 hours
Protocol: Human ovarian cancer cells, SKOV-3 and SKOV-3/Luc cells, were cultured in GIBCO™ DMEM supplemented with 10% FBS, 100 units/mL penicillin, and 100 μg/mL streptomycin at 37° C. in […] culture flasks under a humidified atmosphere of 5% CO2. Cells were sub-cultured when the cell confluence reached ˜80%.
The anticancer activities of polymer nanogels against SKOV-3 cells were evaluated by MTT assay. Cells were seeded in 96-well plates at a density of 5,000 cells/well for 24 hours prior to the test at 37° C. with 5% CO2. Then the cells were treated with varying concentrations of PTX/DOX or polymer nanogels in fresh medium and further incubated for 72 hours. In the control group, cells were allowed to grow without any treatment. After that, the medium was replaced with 100 μL fresh medium containing MTT reagent (final concentration 1 mg/mL) and cells were further incubated for 4 hours. The purple MTT crystal was dissolved with 100 μL MTT stop solution and the optical density at 595 nm was recorded on a microplate reader (ELx808™ Absorbance Microplace Reader, Bio-Tech Instrument, Inc.).

Row | SMILES | IC50 (Homo sapiens, SK-OV-3, PTX, PPP and PPPM nanogels) | IC50 (DOX, PPD and PPDA nanogels)
1 | CC(=O)O[C@H]1C(=O)[C@@]2(C)[C@H]([C@H](OC(=O)c3ccccc3)[C@]3(O)C[C@H](OC(=O)[C@H](O)[C@@H](NC(=O)c4ccccc4)c4ccccc4)C(C)=C1C3(C)C)[C@]1(OC(C)=O)CO[C@@H]1C[C@@H]2O [PTX, paclitaxel] | 0.0306 µM | 
2 | COc1cccc2c1C(=O)c1c(O)c3c(c(O)c1C2=O)C[C@@](O)(C(=O)CO)C[C@@H]3O[C@H]1C[C@H](N)[C@H](O)[C@H](C)O1 [DOX, doxorubicin] |  | 0.582 µM
